# Data as given in patent US9550073B2, “Therapeutic agent for allergic rhinitis” (SBI Pharmaceuticals Co., Ltd., priority 2011, dated 2017).
# Counter-ions that a name gives are not always drawn.
# Key:
# Assay type in all cases: in vivo, human
# [1] = test system: allergic rhinitis due to pollinosis; assay: ALA-PDT with 635 nm red semiconductor laser after ALA hydrochloride in applied liquid form (transdermal, nasal cavity), subjects with pollinosis; settings: 5% by weight in saline on cotton in the nasal cavity for 1 hour, 100 J of 635 nm laser for 6 minutes
# Protocol: Then, it was examined whether or not, even when the ALA hydrochloride was administered in an applied liquid form, it could treat allergic rhinitis. A saline solution comprising 5% by weight of ALA hydrochloride sufficiently soaked in cotton was applied to the nasal cavity of 4 adult male subjects with pollinosis, and the soaked cotton was left in place for 1 hour before being removed. 100 J of red semiconductor laser light having a wavelength of 635 nm was intranasally irradiated for 6 minutes immediately after removing the soaked cotton on 3 of the subjects and 1 hour after removing the soaked cotton on the remaining 1 subject. As a result, symptoms of a severe runny nose and sneezing due to pollinosis of the 4 subjects disappeared for the 1 subject irradiated 1 hour thereafter and abated for the 3 subjects irradiated immediately thereafter. […] In addition, the treatment by the liquid form application is shown to be more excellent treatment than that by oral administration in view of cost effectiveness and time effectiveness because the direct application of an ALA hydrochloride solution around an inflamed site of the nasal mucosa can more decrease the amount of ALA hydrochloride administered than oral administration and PpIX accumulates in a short time in the inflamed site of the nasal mucosa.
# [2] = test system: allergic rhinitis; assay: ALA-PDT with 635 nm red LED on the inflamed site after oral ALA hydrochloride, subjects with allergic rhinitis; settings: 3 subjects; 20 mg/kg oral; 635 nm red LED until red fluorescence no longer visible
# Protocol: (§1) To 3 subject volunteers with allergic rhinitis, 20 mg/kg of ALA hydrochloride was orally administered, and violet light of 408 nm was irradiated into the nasal cavity after about 6 hours using a bronchoscope enabling fluorescence observation (SAFE-3000 from Pentax) to perform ALA-PDD. […] The light of a red LED (light emitting diode) (FIG. 2) having a wavelength of 635 nm was irradiated on the inflamed site of the nasal mucosa until the red fluorescence could not be visually observed (FIG. 3). More specifically, the red LED light having a wavelength of 635 nm was irradiated for a certain period, followed by discontinuing the PDT irradiation; a bronchoscope (SAFE-3000 from Pentax) was inserted into the nasal cavity by interchanging with the irradiation device; and after observing red light, the PDT irradiation was again performed.
# [3] = test system: inflamed site of the nasal mucosa; assay: ALA-PDD: PpIX accumulation in the nasal mucosa after oral ALA hydrochloride; settings: 3 subject volunteers with allergic rhinitis; 20 mg/kg oral; 408 nm violet light after about 6 hours
# Protocol: as §1
# [4] = test system: allergic rhinitis due to pollinosis; assay: ALA-PDT with 635 nm red semiconductor laser into the entire nasal cavity after oral ALA hydrochloride, subjects with pollinosis; settings: 20 mg/kg oral
# Protocol: To a total 12 subjects with pollinosis, 7 adult males and 5 adult females, 20 mg/kg of ALA hydrochloride was orally administered, and 6 hours later, 100 J of red semiconductor laser light having a wavelength of 635 nm was irradiated into the nasal cavity for 6 minutes. As a result, symptoms of a severe runny nose and sneezing due to pollinosis of the 12 subjects disappeared ([…]) or abated (5 subjects), and these effects were maintained until at least 1 year after the irradiation.
# [5] = of 12 subjects with pollinosis, 6 hours later 100 J of 635 nm laser for 6 minutes
compound,measurement,setting,value
"NCC(=O)CCC(=O)O [ALA hydrochloride, 5-aminolevulinic acid]","symptoms of a severe runny nose and sneezing, irradiated 1 hour after removing the soaked cotton",[1]; 1 subject,disappeared
same,"symptoms of a severe runny nose and sneezing, irradiated immediately after removing the soaked cotton",[1]; 3 subjects,abated
same,course of symptoms of runny nose and sneezing thereafter,[2],abated over several weeks
same,symptoms of a severe runny nose and sneezing until several days after the irradiation,[2],observed in the 3 subjects
same,inflamed site of the nasal mucosa by which PpIX was taken up (ALA-PDD fluorescence),[3],detected as red fluorescence
same,time for which the effects were maintained after the irradiation,"[4]; 12 subjects with pollinosis, 100 J of 635 nm laser for 6 minutes",at least 1 year
same,subjects whose symptoms of a severe runny nose and sneezing abated,[4]; [5],5 subjects
same,subjects whose symptoms of a severe runny nose and sneezing disappeared,[4]; [5],3 subjects
